This is an account of results in patent US9249184B2, “Cardiac-specific protein targeting domain” (University of Pittsburgh—of the Commonwealth System of …, priority 2010, dated 2016).

Ends that are not written are not given here.

In assay [1] the test system is human heart tissue. The assay can be described thus: Ex vivo transduction of human explanted heart slices (confocal microscopy). To be noted: separate explanted heart; 500 ul of 1 mM solution; 30 mins at 37° C. As to the method:
Human explanted hearts were obtained from the operating rooms of UPMC at the time of ongoing heart transplants. Heart tissue was dissected from the proximal part or the base of the heart to avoid the more scarred, infarcted, distal tissue. Small 1-2 mm thick slices of heart tissue were taken and incubated with CTP-6CF (500 ul of a 1 mM solution) or PBS, for 30 and 60 mins, at 37° C./5% CO2. At the end of the incubation period, the heart slices were washed in PBS 6 times, fixed in 2% paraformaldehyde for 4 hrs at room temperature, followed by 30% sucrose overnight at 4° C. Next day the tissue was frozen in liquid nitrogen-chilled isopentane and stored 58
at −80° C., for later cryosectioning, cross-staining with DRAQ5 and confocal microscopy. Confocal micrographs were obtained avoiding the edges because of the necessary damage associated with dissecting the heart tissue pieces. Confocal micrographs were taken 3-4 cell layers away from any edges.
To investigate if this transduction was indeed peptide specific, and not secondary to increased membrane leakiness resulting from tissue being ischemic, we incubated thin, 1-2 mm thick, heart slices, from a separate explanted heart, in only 6CF in PBS, CTP-6CF, RAN-6CF as well as 6CF labeled 6-Arginine, a known PTD. We also incubated heart slices with Evans blue dye (EBD) to assess for membrane leakiness. […]

For assay [2] the following is noted: in vitro phage display; cited from earlier work.
The conditions of assay [3]: in vitro phage display; cited from earlier work. This is another data set of the same source.
Assay [4] has as its system heart, liver, lung, spleen, kidney, skeletal muscle and brain. Nature of the assay: In vivo tissue transduction by biotinylated peptides coupled to Streptavidin-Alexa488 (confocal microscopy). Further details: species or system Balb/c mice. To be noted: 10 mg/Kg i.v.; 30 minutes post-injection. As to the method: In vivo imaging studies. The initial in vivo targeting studies were performed using CTP-6CF. Female Balb/C mice were injected retro-orbitally with CTP-6CF (25 mg/Kg) and euthanized 15 minutes later, Heart cross-sections were stained for actin using phalloidin Alexa-647 (Molecular Probes, A22287) and stained for laminin using a rabbit anti-laminin antibody followed by a goat anti-rabbit Cy3 (Jackson ImmunoResearch, 111-167-003) secondary antibody. Five non-overlapping sections were taken from each heart for quantification of green fluorescence (CTP-6CF) expressed as a percentage of total area (blue; stained for actin). A control peptide (CON; […]; SEQ ID NO:15), picked from the original, unselected M13 phage library, CTP and 8-Lysine (8K, a homopolymer of lysine), a known cationic protein transduction domain, were synthesized in a biotinylated form. 200 mM of biotinylated CTP, CON and 8K, or equivalent volume of PBS, were incubated with 10 ul of Streptavidin-Alexa488 (2 ng/ml; Molecular Probes, 532354) for 2 hours at room temperature. Female Balb/c mice were intravenously (retro-orbitally) injected with peptides at a dose of 10 mg/Kg and then euthanized 30 minutes post-injection. […] For confocal microscopy, laser intensities/gains were set using negative control (PBS injected) heart tissue to minimize background fluorescence. […]

For assay [5], the system named is apoptosis in heart. The assay can be described thus: TUNEL staining of heart cross-sections in the murine infarct model. It is filed as in vivo, Balb/c mice. To be noted: 8K-NBD study; 5 mg/Kg/injection i.p. post-op day 0, 1, 2; day 7. As to the method: A cross-section from each heart was taken and apoptosis assessed by TUNEL staining. The nuclei were stained with Dapi, and the number of TUNEL positive nuclei expressed as a percentage of total nuclei in each field. The whole heart cross-section was taken into consideration by taking 5-6 contiguous, non-overlapping sections from each heart. […] FIG. 18 illustrates the TUNEL staining data in a quantitative manner.

Assay [6] deals with myocardial infarct. The assay can be described thus: Murine infarct model (left artery ligation). In kind it is in vivo, Balb/c mice. To be noted: 8K-NBD study; 5 mg/Kg/injection i.p. post-op day 0, 1, 2; day 7; vs PBS. The text has this:
The following protocol was used and kept consistent from one set of experiments to another and between groups. Female, Balb/c, 10-20 week old mice were used for these set of studies. Female mice were chosen because of the ability to house 5/cage, as opposed to male mice (4/cage) and more importantly because female mice are able to tolerate cardiac insults better with lower post-operative mortality (19). Mice were anesthetized with intraperitoneal (i.p.) injection of 2.5% Avertin (a mixture of 15.5 ml tert-amyl alcohol to 25 grams of 2-2-2 Tribromoethanol-stock solution diluted to 2.5% concentration with PBS) at a dose of 15 μl/gm of body weight. Adequate anesthetic level was assessed by lack of response to toe-pinch and lack of a gag reflex. Mice were intubated, using direct visualization of the vocal chords, with a 22 G cannula and placed on a Harvard rodent ventilator apparatus. Tube placement was confirmed by symmetric expansion of the thoracic cavity. Mice were ventilated with ˜0.1 cc/breath tidal volume at a rate of 110 breaths/minute. […]
Mice were euthanized on post-operative day 7. […] The three sections were H&E stained, light microscopy photographs taken, and area of infarct in each section mapped out using computer software Metamorph and expressed as a percent of the whole heart. […]

In the case of `O=C(O)c1ccc2c(c1)C1(OC2=O)c2ccc(O)cc2Oc2cc(O)ccc21` [6CF, 6-carboxyfluorescene], the “uptake in human heart slices ex vivo (confocal microscopy)” value in assay [1] is listed as “occasional cells showing fluorescence”.

Turning to `Cc1cc(-c2ccc(/N=N/c3ccc4c(S(=O)(=O)[O-])cc(S(=O)(=O)[O-])c(N)c4c3O)c(C)c2)ccc1/N=N/c1ccc2c(S(=O)(=O)[O-])cc(S(=O)(=O)[O-])c(N)c2c1O.[Na+].[Na+].[Na+].[Na+]` [EBD, Evans blue dye], in assay [1], the “uptake in human heart slices ex vivo (confocal microscopy)” value is given as “did not show any fluorescence”.

With APWHLSSQYSRT [CTP], the “affinity for binding to two specific sulfated carbohydrates” value in assay [2] is “high affinity”. Besides, the “affinity for binding to apatite-based, bone-like minerals” value in assay [3] is on record as “high affinity”.

Consider “CON-SA488: biotinylated control peptide CON (ARPLEHGSDKAT) coupled to Streptavidin-Alexa488 (also: biotinylated, coupled to streptavidin-Alexa488)”, for which, in assay [4], the “uptake in any organ” value is “did not show appreciable uptake”.

Turning to “KKKKKKKK-TTLDASALQME (KKKKKKKKTTLDASALQME) [8K-mutNBD]”, in assay [5], the “TUNEL positive (apoptotic) nuclei” value was “lesser number of apoptotic nuclei”. In assay [6], the “heart-weight to body-weight ratio” value was “did not differ” and the infarct size result is on record as “worse”.
